Data: US20220062240A1, “METHODS OF TREATING CANCER USING A CLK INHIBITOR” (BioSplice Therapeutics, Inc., priority 2018, published 2022)
Where two headings read alike, the source gives them in different places. Values belong to the molecule of their own block, whether it stands above or below them.

How the values were obtained:
[1] = test system: ovarian cancer (4 cell lines); assay: CellTiter-Glo Viability Assay, ovarian cancer; assay type: cell-based; conditions: Homo sapiens, inhibition of cancer cell proliferation
CLK3 = CLK3 (Homo sapiens, UniProt P49761); assay: CLK3 kinase activity assay (Z-lyte, Ser/Thr 18 peptide)
Sequence of CLK3 (P49761 whole entry): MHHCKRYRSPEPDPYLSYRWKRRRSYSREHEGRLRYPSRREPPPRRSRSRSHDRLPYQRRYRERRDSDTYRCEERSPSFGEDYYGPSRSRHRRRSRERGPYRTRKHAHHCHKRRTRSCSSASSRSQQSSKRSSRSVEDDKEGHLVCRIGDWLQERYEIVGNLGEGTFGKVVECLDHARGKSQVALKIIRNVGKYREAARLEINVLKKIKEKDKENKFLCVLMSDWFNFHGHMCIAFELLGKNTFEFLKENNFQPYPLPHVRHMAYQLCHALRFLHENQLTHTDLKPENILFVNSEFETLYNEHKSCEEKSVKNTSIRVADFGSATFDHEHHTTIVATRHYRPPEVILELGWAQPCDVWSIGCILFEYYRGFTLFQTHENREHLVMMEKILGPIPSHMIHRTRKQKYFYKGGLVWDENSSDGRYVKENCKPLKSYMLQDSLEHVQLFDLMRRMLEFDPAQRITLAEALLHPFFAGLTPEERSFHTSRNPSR
Description: Each compound was dissolved in DMSO as a 10 mM stock and used to prepare compound source plates.
This is a non-radioactive assay using fluorescence resonance energy transfer (FRET) between coumarin and fluorescein to detect kinase activity which is represented as a ratio of coumarin emission/fluorescein emission.
All reactions were performed in duplicate. Unphosphorylated (“0% Control”) and phosphorylated (“100% control”) forms of Ser/Thr 18 served as control reactions. Additionally, an 11-point dose-response curve of Staurosporine (1 uM top) was run to serve as a positive compound control.
After incubation, Development Reagent A was diluted in Development Buffer then added to the reaction and allowed to further incubate for one hour at room temperature.
Dose-response curves were generated and inhibitory concentration (IC50) values were calculated using non-linear regression curve fit in the Dotmatics' Studies Software (Bishops Stortford, UK).
Compounds were acoustically transferred on 1536-well plates (Echo 550, LabCyte) instrument. Kinase, peptide, and ATP reagents from the Z′-LYTE Kinase Assay Kits (Thermo Fisher) were dispensed onto the compound plates using an EL406 liquid dispenser (BioTek). Plates were incubated in the dark at room temperature for 1 hr. Development reagent was added to the plates and then incubated in the dark at room temperature for 1 hr. Fluorescence signal form the plate was then read using an EnVision Multilabel Plate Reader (Perkin Elmer).

CAMA1 = assay: CellTiter-Glo Viability Assay, breast cancer; assay type: cell-based; conditions: Homo sapiens, CAMA-1, 96 h; CAMA1, breast cancer, four days; read-out: EC50
ZR-75-1 = assay: CellTiter-Glo Viability Assay, breast cancer; assay type: cell-based; conditions: Homo sapiens, 96 h; ZR-75-1, breast cancer, four days; read-out: EC50
DU4475 = assay: CellTiter-Glo Viability Assay, breast cancer; assay type: cell-based; conditions: Homo sapiens, DU-4475, 96 h; DU4475, breast cancer, four days; read-out: EC50
MCF7 = assay: CellTiter-Glo Viability Assay, breast cancer; assay type: cell-based; conditions: Homo sapiens, 96 h; MCF7, breast cancer, four days; read-out: EC50
T47D = assay: CellTiter-Glo Viability Assay, breast cancer; assay type: cell-based; conditions: Homo sapiens, 96 h, breast cancer, four days, read-out: EC50
BT-549 = assay: CellTiter-Glo Viability Assay, breast cancer; assay type: cell-based; conditions: Homo sapiens, 96 h; BT-549, breast cancer, four days; read-out: EC50
HCC1599 = assay: CellTiter-Glo Viability Assay, breast cancer; assay type: cell-based; conditions: Homo sapiens, 96 h; HCC1599, breast cancer, four days; read-out: EC50
MDA-MB-231-Luc = assay: CellTiter-Glo Viability Assay, breast cancer; assay type: cell-based; conditions: Homo sapiens, 96 h; MDA-MB-231-Luc, breast cancer, four days; read-out: EC50
CLK2 = target: T1, CLK2 (Homo sapiens, UniProt P49760); assay: CLK2 kinase activity assay (Z-lyte, Ser/Thr 6 peptide); assay type: biochemical; conditions: recombinant CLK2 kinase, ATP 60 μM; read-out: EC50
T1 construct: purchased Thermo Fisher (Life Technologies), Z'-LYTE Kinase Assay Kits
T1 sequence (P49760 whole entry): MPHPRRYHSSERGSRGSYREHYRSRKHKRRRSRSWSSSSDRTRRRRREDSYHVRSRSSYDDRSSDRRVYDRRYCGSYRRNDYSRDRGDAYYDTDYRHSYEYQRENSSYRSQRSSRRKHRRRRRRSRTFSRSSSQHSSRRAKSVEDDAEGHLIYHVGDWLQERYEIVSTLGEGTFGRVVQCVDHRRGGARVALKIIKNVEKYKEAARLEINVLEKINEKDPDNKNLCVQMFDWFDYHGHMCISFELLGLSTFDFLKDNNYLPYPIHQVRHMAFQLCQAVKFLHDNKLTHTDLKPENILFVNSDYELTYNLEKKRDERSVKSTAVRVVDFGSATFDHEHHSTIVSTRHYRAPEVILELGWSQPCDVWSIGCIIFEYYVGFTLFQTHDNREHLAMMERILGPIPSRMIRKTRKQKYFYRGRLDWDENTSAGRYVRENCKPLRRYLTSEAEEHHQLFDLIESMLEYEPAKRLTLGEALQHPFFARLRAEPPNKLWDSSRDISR
Description: All reactions were performed in duplicate.

[2] = test system: pancreatic cancer (8 cell lines); assay: CellTiter-Glo Viability Assay, pancreatic cancer; assay type: cell-based; conditions: Homo sapiens, inhibition of cancer cell proliferation
all 50 cell lines = assay: CellTiter-Glo Viability Assay, average across all cell lines; assay type: cell-based; conditions: Homo sapiens; across all 50 cell lines; read-out: average EC50 for inhibition of cancer cell proliferation
Outline: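 Cancer cell lines of several tumour types plated at 300-3,000 cells/well and exposed to compound in duplicate for four days at 37° C, 5% CO2, with DMSO-treated controls. Viability read by CellTiter-Glo luminescence (ATP content); EC50 derived from dose-response curves.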

[3] = test system: lung cancer (4 cell lines); assay: CellTiter-Glo Viability Assay, lung cancer; assay type: cell-based; conditions: Homo sapiens, inhibition of cancer cell proliferation
[4] = test system: prostate cancer (5 cell lines); assay: CellTiter-Glo Viability Assay, prostate cancer; assay type: cell-based; conditions: Homo sapiens
[5] = test system: haematopoietic & lymphoid tumors (13 cell lines); assay: CellTiter-Glo Viability Assay, haematopoietic & lymphoid tumors; assay type: cell-based; conditions: Homo sapiens, inhibition of cancer cell proliferation
[6] = test system: colorectal cancer (6 cell lines); assay: CellTiter-Glo Viability Assay, colorectal cancer; assay type: cell-based; conditions: Homo sapiens, inhibition of cancer cell proliferation
[7] = test system: liver cancer (3 cell lines); assay: CellTiter-Glo Viability Assay, liver cancer; assay type: cell-based; conditions: Homo sapiens, inhibition of cancer cell proliferation
[8] = PA-1, PA1 cell line, read-out: Ovarian cancer, EC50 (μM) PA1
[9] = TOV112D, TOV-112D cell line, read-out: Ovarian cancer, EC50 (μM) TOV-112D
[10] = OV-90 cell line, read-out: Ovarian cancer, EC50 (μM) OV-90
[11] = OVCAR-3 cell line, read-out: Ovarian cancer, EC50 (μM) OVCAR-3
[12] = BXPC-3, BxPC3 cell line, read-out: Pancreatic cancer, EC50 BxPC3
[13] = CAPAN-1, Capan1 cell line, read-out: Pancreatic cancer, EC50 Capan1
[14] = Capan-2, Capan2 cell line, read-out: Pancreatic cancer, EC50 Capan2
[15] = MIA PaCa-2 cell line, read-out: Pancreatic cancer, EC50 MIA PaCa-2
[16] = PANC 05.04 cell line, read-out: Pancreatic cancer, EC50 PANC 05.04
[17] = PANC-1 cell line, read-out: Pancreatic cancer, EC50 PANC-1
[18] = UPAFII cell line, read-out: Pancreatic cancer, EC50 UPAFII
[19] = A-427, A427 cell line, read-out: Lung cancer, EC50 (μM) A427
[20] = HCC78, HCC-78 cell line, read-out: Lung cancer, EC50 (μM) HCC-78
[21] = NCI-H460 cell line, read-out: Lung cancer, EC50 (μM) NCI-H460
[22] = NCI-H522 cell line, read-out: Lung cancer, EC50 (μM) NCI-H522
[23] = DU-145, read-out: Prostate cancer EC50 Du-145
[24] = PC-3, PC3 cell line, inhibition of cancer cell proliferation, read-out: Prostate cancer EC50 PC3
[25] = 22Rv1 cell line, inhibition of cancer cell proliferation, read-out: Prostate cancer EC50 22Rv1
[26] = LNCap clone FGC cell line, inhibition of cancer cell proliferation, read-out: Prostate cancer EC50 LNCap clone FGC
[27] = VCaP (Sigma) cell line, inhibition of cancer cell proliferation, read-out: Prostate cancer EC50 VCaP (Sigma)
[28] = DND41, DND-41 cell line, read-out: Haematopoietic & Lymphoid tumors, EC50 (μM) DND-41
[29] = MV4-11, MV-4-11 cell line, read-out: Haematopoietic & Lymphoid tumors, EC50 (μM) MV-4-11
[30] = Rec1, REC-1 cell line, read-out: Haematopoietic & Lymphoid tumors, EC50 (μM) REC-1
[31] = SU-DHL-4, SUDHL4 cell line, read-out: Haematopoietic & Lymphoid tumors, EC50 (μM) SUDHL4
[32] = HL-60 cell line, read-out: Haematopoietic & Lymphoid tumors, EC50 (μM) HL-60
[33] = JM1 cell line, read-out: Haematopoietic & Lymphoid tumors, EC50 (μM) JM1
[34] = JURKAT, Clone E6-1 cell line, read-out: Haematopoietic & Lymphoid tumors, EC50 (μM) JURKAT, Clone E6-1
[35] = JeKo-1 cell line, read-out: Haematopoietic & Lymphoid tumors, EC50 (μM) JeKo-1
[36] = KASUMI-1 cell line, read-out: Haematopoietic & Lymphoid tumors, EC50 (μM) KASUMI-1
[37] = Loucy cell line, read-out: Haematopoietic & Lymphoid tumors, EC50 (μM) Loucy
[38] = MOLT-4 cell line, read-out: Haematopoietic & Lymphoid tumors, EC50 (μM) MOLT-4
[39] = TF-1 cell line, read-out: Haematopoietic & Lymphoid tumors, EC50 (μM) TF-1
[40] = TOLEDO cell line, read-out: Haematopoietic & Lymphoid tumors, EC50 (μM) TOLEDO
[41] = HCT-116, HCT116 cell line, read-out: Colorectal cancer, EC50 (μM) HCT116
[42] = HT-29, HT29 cell line, read-out: Colorectal cancer, EC50 (μM) HT29
[43] = SW-620, SW620 cell line, read-out: Colorectal cancer, EC50 (μM) SW620
[44] = DLD-1 cell line, read-out: Colorectal cancer, EC50 (μM) DLD-1
[45] = SW48 cell line, read-out: Colorectal cancer, EC50 (μM) SW48
[46] = SW480 cell line, read-out: Colorectal cancer, EC50 (μM) SW480
[47] = SNU-398, SNU398 cell line, read-out: Liver cancer, EC50 SNU398
[48] = HEPG2 cell line, read-out: Liver cancer, EC50 HEPG2
[49] = PLC/PRF/5 cell line, read-out: Liver cancer, EC50 PLC/PRF/5

- EC50 [1, 8]: 3.04 µM
- EC50 [1, 9]: 3.63 µM
- EC50 [1, 10]: 7.97 µM
- EC50 [1, 11]: 2.62 µM
- EC50 (CLK3): 343 nM
- EC50 (CAMA1): 5210 nM
- EC50 (ZR-75-1): 6810 nM
- EC50 (DU4475): 3870 nM
- EC50 (MCF7): > 10000 nM
- EC50 (T47D): 8470 nM
- EC50 (BT-549): 4740 nM
- EC50 (HCC1599): 2330 nM
- EC50 (MDA-MB-231-Luc): 6470 nM
- EC50 (CLK2): 12 nM
- EC50 [2, 12]: 9160 nM
- EC50 [2, 13]: 4840 nM
- EC50 [2, 14]: 8870 nM
- EC50 [2, 15]: 1590 nM
- EC50 [2, 16]: 5510 nM
- EC50 [2, 17]: 5640 nM
- EC50 [2, 18]: 3820 nM
- EC50 [3, 19]: 4.18 µM
- EC50 [3, 20]: 8.18 µM
- EC50 [3, 21]: 7.41 µM
- EC50 [3, 22]: 3.3 µM
- EC50 [4, 23]: 6490 nM
- EC50 [4, 24]: 4420 nM
- EC50 [4, 25]: 3980 nM
- EC50 [4, 26]: 6850 nM
- EC50 [4, 27]: 6660 nM
- EC50 [5, 28]: 7.09 µM
- EC50 [5, 29]: 3.34 µM
- EC50 [5, 30]: 3.52 µM
- EC50 [5, 31]: 3.46 µM
- EC50 [5, 32]: 8.7 µM
- EC50 [5, 33]: 1.69 µM
- EC50 [5, 34]: > 10 µM
- EC50 [5, 35]: 1.49 µM
- EC50 [5, 36]: 3.19 µM
- EC50 [5, 37]: 3.72 µM
- EC50 [5, 38]: 7.07 µM
- EC50 [5, 39]: 6 µM
- EC50 [5, 40]: 2.21 µM
- EC50 [6, 41]: 2.93 µM
- EC50 [6, 42]: 6.16 µM
- EC50 [6, 43]: 1.82 µM
- EC50 [6, 44]: 5.01 µM
- EC50 [6, 45]: 1.49 µM
- EC50 [6, 46]: 3.24 µM
- EC50 [7, 47]: 1370 nM
- EC50 [7, 48]: 3440 nM
- EC50 [7, 49]: 9520 nM
Compound: Cc1n[nH]c2cc(F)c(-c3cncc(CN4CCNCC4)c3)cc12 [Compound 63]
- EC50 (all 50 cell lines): 5050 nM

- EC50 [1, 8]: 0.209 µM
- EC50 [1, 9]: 0.117 µM
- EC50 [1, 10]: 0.334 µM
- EC50 [1, 11]: 0.092 µM
- EC50 (CLK3): 16.2 nM
- EC50 (CAMA1): 307 nM
- EC50 (ZR-75-1): 365 nM
- EC50 (DU4475): 140 nM
- EC50 (MCF7): 860 nM
- EC50 (T47D): 493 nM
- EC50 (BT-549): 215 nM
- EC50 (HCC1599): 177 nM
- EC50 (MDA-MB-231-Luc): 292 nM
- EC50 (CLK2): 1.1 nM
- EC50 [2, 12]: 383 nM
- EC50 [2, 13]: 225 nM
- EC50 [2, 14]: 344 nM
- EC50 [2, 15]: 90 nM
- EC50 [2, 16]: 289 nM
- EC50 [2, 17]: 352 nM
- EC50 [2, 18]: 140 nM
- EC50 [3, 19]: 0.198 µM
- EC50 [3, 20]: 0.304 µM
- EC50 [3, 21]: 0.248 µM
- EC50 [3, 22]: 0.095 µM
- EC50 [4, 23]: 252 nM
- EC50 [4, 24]: 205 nM
- EC50 [4, 25]: 232 nM
- EC50 [4, 26]: 333 nM
- EC50 [4, 27]: 466 nM
- EC50 [5, 28]: 0.191 µM
- EC50 [5, 29]: 0.056 µM
- EC50 [5, 30]: 0.061 µM
- EC50 [5, 31]: 0.208 µM
- EC50 [5, 32]: 0.432 µM
- EC50 [5, 33]: 0.054 µM
- EC50 [5, 34]: 0.431 µM
- EC50 [5, 35]: 0.062 µM
- EC50 [5, 36]: 0.129 µM
- EC50 [5, 37]: 0.146 µM
- EC50 [5, 38]: 0.2 µM
- EC50 [5, 39]: 0.368 µM
- EC50 [5, 40]: 0.073 µM
- EC50 [6, 41]: 0.105 µM
- EC50 [6, 42]: 0.247 µM
- EC50 [6, 43]: 0.068 µM
- EC50 [6, 44]: 0.137 µM
- EC50 [6, 45]: 0.052 µM
- EC50 [6, 46]: 0.145 µM
- EC50 [7, 47]: 48 nM
- EC50 [7, 48]: 165 nM
- EC50 [7, 49]: 459 nM
Compound: CN1CCC2(CC1)CN(c1cc(C(=O)Nc3cc4cc(-c5cnn(C)c5)ccc4cn3)ccn1)C2 [Compound 71]
- EC50 (all 50 cell lines): 232 nM
